Test results: patent US6984635B1, “Dimerizing agents, their production and use” (Board of Trustees of The Leland Stanford Jr. University, priority 1998, dated 2006)
pEC50, pIC50: −log10 of the molar value.

Legend:
Assay type in all cases: cell-based
[1] = biological target: T1, Gal4-FKBP3 / FRB*-VP16 (FRB harboring T2098L, W2101F, and K2095P) (Homo sapiens, UniProt P42345+P62942, K2095P/T2098L/W2101F); experiment: activation of transcription in Jurkat cells transfected with Gal4-FKBP3, FRB*-VP16 and UAS-SEAP; details: for amplitude of reporter gene activity: FRB*-VP16, compared with rapamycin/wild type FRB-VP16 system; for pEC50: FRB*-VP16 replaces wild type FRB-VP16, read-out: EC50 of reporter gene activity
T1 construct: FRB*-VP16 (FRB harboring T2098L, W2101F, and K2095P) replaces wild type FRB-VP16; expressed in transfected cells; host or cells: Jurkat cells
From the text: (§1) The ability of the rapalogs to multimerize chimeric proteins may be measured in cell-based assays by measuring the occurrence of an event triggered by such multimerization. For instance, one may use cells containing and capable of expressing DNA encoding a first chimeric protein comprising one or more FKBP-domains and one or more effector domains as well as DNA encoding a second chimeric protein containing an FRB domain and one or more effector domains capable, upon multimerization, of actuating a biological response. We prefer to use cells which further contain a reporter gene under the transcriptional control of a regulatory element (i.e., promoter) which is responsive to the multimerization of the chimeric proteins. The design and preparation of illustrative components and their use in so engineered cells is described in WO96/41865 and the other international patent applications referred to in this and the foregoing section. The cells are grown or maintained in culture. A rapalog is added to the culture medium and after a suitable incubation period (to permit gene expression and secretion, e.g. several hours or overnight) the presence of the reporter gene product is measured. Positive results, i.e., multimerization, correlates with transcription of the reporter gene as observed by the appearance of the reporter gene product. The reporter gene product may be a conveniently detectable protein (e.g. by ELISA) or may catalyze the production of a conveniently detectable product (e.g. colored). Materials and methods for producing appropriate cell lines for conducting such assays are disclosed in the international patent applications cited above in this section. Typically used target genes include by way of example SEAP, hGH, beta-galactosidase, Green Fluorescent Protein and luciferase, for which convenient assays are commercially available.
Likewise, C3-allyl rapamycin and C3-methallyl rapamycin were impaired in their ability to activate transcription in Jurkat cells transfected with Gal4-FKBP3, wild type FRB-VP16, and UAS-SEAP. […] C3 derivatives of rapamycin have impaired toxicity (immunosuppressive activity) and can be used efficiently as dimerizers in conjunction with engineered FRB domains. Preparation of 24(S),30(S)-tetrahydro-C3-rapalogs [drawing 30]

[2] = biological target: T2, Gal4-FKBP3 / wild type FRB-VP16 (Homo sapiens, UniProt P42345+P62942); experiment: activation of transcription in Jurkat cells transfected with Gal4-FKBP3, wild type FRB-VP16 and UAS-SEAP
T2 construct: Jurkat cells transfected with Gal4-FKBP3, wild type FRB-VP16, and UAS-SEAP; expressed in transfected cells; host or cells: Jurkat cells
From the text: as §1, with “The reporter gene product may be a conveniently detectable protein (e.g. by ELISA) or may catalyze the production of a conveniently detectable product (e.g. colored). Materials and methods for producing appropriate cell lines for conducting such assays are disclosed in the international patent applications cited above in this section. Typically used target genes include by way of example SEAP, hGH, beta-galactosidase, Green Fluorescent Protein and luciferase, for which convenient assays are commercially available.” left out

CTLL-2 cells = experiment: inhibition of proliferation of CTLL-2 cells (toxicity)
Procedure: The toxicity of the lead compounds was tested by their ability to inhibit the proliferation of CTLL-2 cells, which are IL-2 dependent and highly sensitive to rapamycin (IC50<1 nM).

T1 sequence (P62942 2-108 limits assumed): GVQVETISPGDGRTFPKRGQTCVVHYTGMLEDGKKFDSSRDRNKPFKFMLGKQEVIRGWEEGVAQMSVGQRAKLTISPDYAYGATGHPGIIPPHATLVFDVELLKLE
T1 sequence (P42345 2012-2144 K2095P/T2098L/W2101F limits assumed): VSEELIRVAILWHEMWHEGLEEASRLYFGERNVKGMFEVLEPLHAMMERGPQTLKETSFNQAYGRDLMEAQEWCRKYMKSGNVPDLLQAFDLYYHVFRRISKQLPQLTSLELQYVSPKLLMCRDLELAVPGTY
T2 sequence (P62942 2-108 limits assumed): as the sequence (P62942 2-108 limits assumed) above
T2 sequence (P42345 2012-2144 limits assumed): as the sequence (P42345 2012-2144 K2095P/T2098L/W2101F limits assumed) above, with P84K, L87T, F90W counted along it

| Molecule | amplitude of reporter gene activity [1] | pEC50 [1] | ability to activate transcription (SEAP reporter) [2] | effect on proliferation of CTLL-2 cells (CTLL-2 cells; incubation with 1 μM compound) | pIC50 (CTLL-2 cells; IL-2 dependent CTLL-2 cells) |
| --- | --- | --- | --- | --- | --- |
| C=CCC1C=CC(C)=CCC2CCC(C)C(O)(O2)C(=O)C(=O)N2CCCCC2C(=O)OC(C(C)CC2CCC(O)C(OC)C2)CC(=O)C(C)C=C(C)C(O)C(OC)C(=O)C(C)CC(C)C=C1 (centres unmarked) [C3-allyl rapamycin, 3-allyl-rapamycin] | higher than that elicited by the rapamycin/wild type FRB-VP16 system | ~8.00 | impaired |  |  |
| C=C(C)CC1C=CC(C)=CCC2CCC(C)C(O)(O2)C(=O)C(=O)N2CCCCC2C(=O)OC(C(C)CC2CCC(O)C(OC)C2)CC(=O)C(C)C=C(C)C(O)C(OC)C(=O)C(C)CC(C)C=C1 (centres unmarked) [C3-methallyl rapamycin, 3-methallyl-rapamycin] | higher than that elicited by the rapamycin/wild type FRB-VP16 system | ~8.00 | impaired | no detectable effect |  |
| Rapamycin [reference compound] |  |  |  |  | > 9.00 |
